{"source": "patent US20040006041A1", "about": "“Aqueous fludarabine phosphate composition” (priority 2002, published 2004)", "type_in_all_cases": "physicochemical", "key": {"[1]": {"assay": "Effect of pH on formation of related compounds, aqueous composition stored at 27.5° C. for 7 months", "procedure": "(§1) The effect of the pH of the aqueous fludarabine phosphate composition on the stability of the compositions at elevated temperatures also is shown in Tables 2 and 3. The concentration of fludarabine phosphate in each of the compositions of Tables 2 and 3 was 25 mg/mL."}, "[2]": {"assay": "Effect of pH on formation of related compounds, aqueous composition stored at 40° C. for 1 month followed by one-year storage at 2-8° C.", "details": "25 mg/mL, 40° C. 1 month then one year 2-8° C.", "procedure": "as §1"}, "[3]": {"assay": "Effect of pH on formation of related compounds, aqueous compositions stored at 40° C. for 1 month", "procedure": "The effect of the pH of the aqueous fludarabine phosphate composition on the stability of the compositions at elevated temperatures is shown in the following table. The concentration of fludarabine phosphate in each of the compositions of Table 1 was 25 mg/mL.\nIts level of “total related compounds” was 0.1%. In contrast, after being stored for 1 months at 40° C., the fludarabine phosphate composition having a pH of 7.7 contained 0.8 of FP-2HA and 1.3% “total related compounds.”"}, "[4]": {"details": "pH 5.5, 25 mg/mL aqueous composition"}, "[5]": {"details": "pH 6.5, 25 mg/mL aqueous composition"}, "[6]": {"details": "pH 7.7, 25 mg/mL aqueous composition"}, "[7]": {"details": "pH 8.1, 25 mg/mL aqueous composition"}}}
{"substance": "Fludarabine phosphate", "values": [{"measurement": "Concentration of FP-2HA, %", "setting": "[1]; pH 6.8, 25 mg/mL", "value": 0.33, "unit": "%"}, {"measurement": "Single Largest Other, %", "setting": "[1]; pH 6.8, 25 mg/mL", "value": 0.1, "unit": "%"}, {"measurement": "Total Related Compounds*, % (excluding fludarabine)", "setting": "[1]; pH 6.8, 25 mg/mL", "value": 0.43, "unit": "%"}, {"measurement": "Concentration of FP-2HA, %", "setting": "[1]; pH 7.2, 25 mg/mL", "value": 0.54, "unit": "%"}, {"measurement": "Single Largest Other, %", "setting": "[1]; pH 7.2, 25 mg/mL", "value": 0.1, "unit": "%"}, {"measurement": "Total Related Compounds*, % (excluding fludarabine)", "setting": "[1]; pH 7.2, 25 mg/mL", "value": 0.94, "unit": "%"}, {"measurement": "Concentration of FP-2HA, %", "setting": "[2]; pH 6.0", "value": 0.4, "unit": "%"}, {"measurement": "Single Largest Other, %", "setting": "[2]; pH 6.0", "value": 0.09, "unit": "%"}, {"measurement": "Total Related Compounds*, % (excluding fludarabine)", "setting": "[2]; pH 6.0", "value": 0.5, "unit": "%"}, {"measurement": "Concentration of FP-2HA, %", "setting": "[2]; pH 7.0", "value": 0.32, "unit": "%"}, {"measurement": "Single Largest Other, %", "setting": "[2]; pH 7.0", "value": 0.1, "unit": "%"}, {"measurement": "Total Related Compounds*, % (excluding fludarabine)", "setting": "[2]; pH 7.0", "value": 0.34, "unit": "%"}, {"measurement": "Concentration of FP-2HA, %", "setting": "[2]; pH 7.6", "value": 0.56, "unit": "%"}, {"measurement": "Single Largest Other, %", "setting": "[2]; pH 7.6", "value": 0.2, "unit": "%"}, {"measurement": "Total Related Compounds*, % (excluding fludarabine)", "setting": "[2]; pH 7.6", "value": 1.1, "unit": "%"}, {"measurement": "Concentration of FP-2HA, %", "setting": "[2]; pH 8.1", "value": 0.93, "unit": "%"}, {"measurement": "Single Largest Other, %", "setting": "[2]; pH 8.1", "value": 0.4, "unit": "%"}, {"measurement": "Total Related Compounds*, % (excluding fludarabine)", "setting": "[2]; pH 8.1", "value": 2.0, "unit": "%"}, {"measurement": "Concentration of FP-2HA, %", "setting": "[3]; [4]", "value": "<LOQ"}, {"measurement": "Total Related Compounds*, % (excluding fludarabine)", "setting": "[3]; [4]", "value": 0.1, "unit": "%"}, {"measurement": "Concentration of FP-2HA, %", "setting": "[3]; [5]", "value": "<LOQ"}, {"measurement": "Total Related Compounds*, % (excluding fludarabine)", "setting": "[3]; [5]", "value": 0.2, "unit": "%"}, {"measurement": "Concentration of FP-2HA, %", "setting": "[3]; [6]", "value": 0.8, "unit": "%"}, {"measurement": "Total Related Compounds*, % (excluding fludarabine)", "setting": "[3]; [6]", "value": 1.3, "unit": "%"}, {"measurement": "Concentration of FP-2HA, %", "setting": "[3]; [7]", "value": 1.0, "unit": "%"}, {"measurement": "Total Related Compounds*, % (excluding fludarabine)", "setting": "[3]; [7]", "value": 2.2, "unit": "%"}]}
